According to patent US7138361B2, “Herbicidal heterocycles” (E. I. du Pont de Nemours and Company, priority 2000, dated 2006):

Tests used:
Type in all cases: in vivo
[1] = tested on: velvetleaf (Abutilon theophrasti); assay: Test B postemergence; details: 13 to 15 days
Summary of the method: (§1)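 Preemergence: seeds planted and treated with test chemicals in non-phytotoxic solvent with surfactant; postemergence on plants 2–18 cm (1- to 4-leaf stage). Kept in greenhouse 13–15 days, then visually rated against controls on a 0 (no effect) to 100 (complete control) scale.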

[2] = tested on: Surinam grass (Brachiaria decumbens); assay: Test B postemergence; details: 13 to 15 days
Summary of the method: as §1

[3] = tested on: lambsquarters (Chenopodium album); assay: Test B postemergence; details: 13 to 15 days
Summary of the method: as §1

[4] = tested on: giant foxtail (Setaria faberii); assay: Test B postemergence; details: 13 to 15 days
Summary of the method: as §1

[5] = tested on: wild oat (Avena fatua); assay: Test B postemergence; details: 13 to 15 days
Summary of the method: as §1

[6] = tested on: morning glory (Ipomoea hederacea); assay: Test B postemergence; details: 13 to 15 days
Summary of the method: as §1

[7] = tested on: corn (Zea mays); assay: Test B postemergence; details: 13 to 15 days
Summary of the method: as §1

[8] = tested on: barnyardgrass (Echinochloa crus-galli); assay: Test B postemergence; details: 13 to 15 days
Summary of the method: as §1

[9] = tested on: blackgrass (Alopecurus myosuroides); assay: Test B postemergence; details: 13 to 15 days
Summary of the method: as §1

[10] = tested on: cocklebur (Xanthium strumarium); assay: Test B postemergence; details: 13 to 15 days
Summary of the method: as §1

[11] = tested on: crabgrass (Digitaria sanguinalis); assay: Test B postemergence; details: 13 to 15 days
Summary of the method: as §1

[12] = tested on: pigweed (Amaranthus retroflexus); assay: Test B postemergence; details: 13 to 15 days
Summary of the method: as §1

[13] = tested on: wheat (Triticum aestivum); assay: Test B postemergence; details: 13 to 15 days
Summary of the method: as §1

[14] = tested on: Nightshade; assay: Test C preemergence; details: Rate 250 g/ha, visual evaluation after 12 to 14 days
[15] = tested on: velvetleaf (Abutilon theophrasti); assay: Test B preemergence
Summary of the method: as §1

[16] = tested on: Surinam grass (Brachiaria decumbens); assay: Test B preemergence
Summary of the method: as §1

[17] = tested on: lambsquarters (Chenopodium album); assay: Test B preemergence
Summary of the method: as §1

[18] = tested on: giant foxtail (Setaria faberii); assay: Test B preemergence
Summary of the method: as §1

[19] = tested on: morning glory (Ipomoea hederacea); assay: Test B preemergence
Summary of the method: as §1

[20] = tested on: corn (Zea mays); assay: Test B preemergence
Summary of the method: as §1

[21] = tested on: barnyardgrass (Echinochloa crus-galli); assay: Test B preemergence
Summary of the method: as §1

[22] = tested on: rice (Oryza saliva); assay: Test B preemergence
Summary of the method: as §1

[23] = tested on: cocklebur (Xanthium strumarium); assay: Test B preemergence
Summary of the method: as §1

[24] = tested on: crabgrass (Digitaria sanguinalis); assay: Test B preemergence
Summary of the method: as §1

[25] = tested on: pigweed (Amaranthus retroflexus); assay: Test B preemergence
Summary of the method: as §1

[26] = tested on: Sunflower; assay: Test C preemergence; details: Rate 125 g/ha, scale 0 to 100, 0 no effect, 100 complete control
[27] = Rate 125 g/ha, scale 0 (no effect) to 100 (complete control)
[28] = Rate 500 g/ha, scale 0 to 100, 0 is no effect, 100 is complete control
[29] = Preemergence, Rate 500 g/ha, scale 0 to 100, 0 no effect, 100 complete control
[30] = preemergence, Rate 125 g/ha, scale 0 to 100, 0 no effect, 100 complete control
[31] = preemergence, Rate 125 g/ha, scale of 0 to 100 where 0 is no effect and 100 is complete control, 13 to 15 days

## O=C1C(n2ccc(C3CCC3)n2)OCN1c1cccc(C(F)(F)F)c1 (stereo not drawn) [Compound 39]
[1]; [27]
  Plant response rating, Velvetleaf: 0
[1]; [28]
  Plant response rating, Velvetleaf: 0
[2]; [27]
  Plant response rating, Surinam grass: 0
[2]; [28]
  Plant response rating, Surinam grass: 0
[3]; [27]
  Plant response rating, Lambsquarters: 70
[3]; [28]
  Plant response rating, Lambsquarters: 90
[4]; [27]
  Plant response rating, Foxtail, Giant: 0
[4]; [28]
  Plant response rating, Foxtail, Giant: 0
[5]; [27]
  Plant response rating, Wild Oat: 0
[5]; [28]
  Plant response rating, Wild Oat: 0
[6]; [27]
  Plant response rating, Morningglory: 0
[6]; [28]
  Plant response rating, Morningglory: 0
[7]; [27]
  Plant response rating, Corn: 0
[7]; [28]
  Plant response rating, Corn: 10
[8]; [27]
  Plant response rating, Barnyardgrass: 0
[8]; [28]
  Plant response rating, Barnyardgrass: 100
[9]; [27]
  Plant response rating, Blackgrass: 0
[9]; [28]
  Plant response rating, Blackgrass: 0
[10]; [27]
  Plant response rating, Cocklebur: 0
[10]; [28]
  Plant response rating, Cocklebur: 0
[11]; [27]
  Plant response rating, Crabgrass: 0
[11]; [28]
  Plant response rating, Crabgrass: 70
[12]; [27]
  Plant response rating, Pigweed: 60
[12]; [28]
  Plant response rating, Pigweed: 90
[13]; [27]
  Plant response rating, Wheat: 0
[13]; [28]
  Plant response rating, Wheat: 0
[14]
  Plant response rating (0 to 100), Nightshade: 0
[15]; [29]
  Plant response rating, Velvetleaf: 0
[16]; [29]
  Plant response rating, Surinam grass: 20
[16]; [30]
  Plant response rating, Surinam grass: 20
[17]; [29]
  Plant response rating, Lambsquarters: 100
[17]; [30]
  Plant response rating, Lambsquarters: 100
[18]; [29]
  Plant response rating, Foxtail, Giant: 100
[18]; [30]
  Plant response rating, Foxtail, Giant: 30
[19]; [29]
  Plant response rating, Morningglory: 0
[20]; [29]
  Plant response rating, Corn: 0
[20]; [30]
  Plant response rating, Corn: 0
[21]; [29]
  Plant response rating, Barnyardgrass: 100
[21]; [30]
  Plant response rating, Barnyardgrass: 50
[22]; [29]
  Plant response rating, Rice: 0
[23]; [29]
  Plant response rating, Cocklebur: 0
[23]; [30]
  Plant response rating, Cocklebur: 0
[24]; [29]
  Plant response rating, Crabgrass: 100
[24]; [30]
  Plant response rating, Crabgrass: 0
[25]; [29]
  Plant response rating, Pigweed: 100
[26]
  Plant response rating, Sunflower: 0

## O=C1C(n2ccc(C3CCCCC3)n2)SCN1c1cccc(OC(F)(F)F)c1 (stereo not drawn) [Compound 50]
[1]; [27]
  Plant response rating, Velvetleaf: 0
[1]; [28]
  Plant response rating, Velvetleaf: 0
[2]; [27]
  Plant response rating, Surinam grass: 0
[2]; [28]
  Plant response rating, Surinam grass: 0
[3]; [27]
  Plant response rating, Lambsquarters: 70
[3]; [28]
  Plant response rating, Lambsquarters: 80
[4]; [27]
  Plant response rating, Foxtail, Giant: 0
[4]; [28]
  Plant response rating, Foxtail, Giant: 50
[5]; [27]
  Plant response rating, Wild Oat: 0
[5]; [28]
  Plant response rating, Wild Oat: 0
[6]; [27]
  Plant response rating, Morningglory: 0
[6]; [28]
  Plant response rating, Morningglory: 0
[7]; [27]
  Plant response rating, Corn: 0
[7]; [28]
  Plant response rating, Corn: 0
[8]; [27]
  Plant response rating, Barnyardgrass: 0
[8]; [28]
  Plant response rating, Barnyardgrass: 90
[9]; [27]
  Plant response rating, Blackgrass: 0
[9]; [28]
  Plant response rating, Blackgrass: 0
[10]; [27]
  Plant response rating, Cocklebur: 0
[10]; [28]
  Plant response rating, Cocklebur: 50
[11]; [27]
  Plant response rating, Crabgrass: 30
[11]; [28]
  Plant response rating, Crabgrass: 50
[12]; [27]
  Plant response rating, Pigweed: 0
[12]; [28]
  Plant response rating, Pigweed: 0
[13]; [27]
  Plant response rating, Wheat: 0
[13]; [28]
  Plant response rating, Wheat: 0
[14]
  Plant response rating (0 to 100), Nightshade: 0
[15]; [29]
  Plant response rating, Velvetleaf: 100
[15]; [31]
  Plant response rating, Velvetleaf: 100
[16]; [29]
  Plant response rating, Surinam grass: 30
[16]; [31]
  Plant response rating, Surinam grass: 0
[17]; [29]
  Plant response rating, Lambsquarters: 90
[17]; [31]
  Plant response rating, Lambsquarters: 0
[18]; [29]
  Plant response rating, Foxtail, Giant: 100
[18]; [31]
  Plant response rating, Foxtail, Giant: 20
[19]; [29]
  Plant response rating, Morningglory: 0
[19]; [31]
  Plant response rating, Morningglory: 0
[20]; [29]
  Plant response rating, Corn: 0
[20]; [31]
  Plant response rating, Corn: 0
[21]; [29]
  Plant response rating, Barnyardgrass: 90
[21]; [31]
  Plant response rating, Barnyardgrass: 0
[22]; [29]
  Plant response rating, Rice: 0
[22]; [31]
  Plant response rating, Rice: 0
[23]; [29]
  Plant response rating, Cocklebur: 0
[23]; [31]
  Plant response rating, Cocklebur: 0
[24]; [29]
  Plant response rating, Crabgrass: 100
[24]; [31]
  Plant response rating, Crabgrass: 100
[25]; [29]
  Plant response rating, Pigweed: 0
[25]; [31]
  Plant response rating, Pigweed: 0
[26]
  Plant response rating, Sunflower: 30
